# Data as given in patent US5605911A, “Use of alpha-2 adrenergic drugs to prevent adverse effects of NMDA receptor hypofunction (NRH)” (priority 1995, dated 1997).
# “Also recorded” adds a separate entry of the source. Where two headings read alike, the source gives them in different places.
# What was measured:
# PC/RS cortical neurons = assay: protection by anti-psychotic drugs against MK-801 (NRH)-induced vacuoles in rats; format: in vivo; conditions: Rattus norvegicus, Cortical neurone, ip
# Procedure: Control animals received saline or DMSO, but no anti-psychotic drugs. Test animals were injected ip with an antipsychotic drug, listed above and in Table 2. Vacuoles were counted and data were processed as described in Example 1.
# chick embryo retina = assay: NMDA excitotoxicity in chick embryo retina segments, protection by MK-801 with or without alpha-2 agonist; format: cell-based; conditions: MK-801 500 nM; for cytopathology in retina incubated in NMDA plus MK-801, without or with α2 agonist: NMDA 40 μM, α2 agonist 500 nM to 100 μM, n=6 per condition
# Procedure: These experiments were performed using segments of chick embryo retina. This is a widely used model for studying the production and prevention of excitotoxic phenomena, since it is simple and inexpensive. Chick tissue is used, since it tends to provide a better model of adult mammalian tissue than embryonic or juvenile mammalian tissue. Unlike newborn mammals, which are usually blind at birth, baby chicks can see quite well as soon as they emerge from the shell, and the NMDA receptors in chick retinal tissue are fully mature and functional.
# In these tests, NMDA was introduced into the incubation medium in a concentration (40 μM) sufficient to produce a fully developed excitotoxic lesion within 30 min, displaying acute degeneration and necrosis of the majority of neurons in the inner layers of the retina.
# [1] = tested on: people addicted to cigarettes or opiates; conditions: cited from earlier work
# [2] = tested on: pyramidal neurons in layers III and IV of the posterior cingulate (PC) and retrosplenial (RS) cortices; assay: protection by alpha-2 adrenergic agonists against MK-801 neurotoxicity (vacuolated PC/RS neurons) in rats; conditions: for ED50: Rattus norvegicus, Pyramidal neuron, ip; for relative potency in preventing the neurotoxic reaction: ranking in words among the four α2 agonists
# Text: For each test agent, at least 17 rats were used and at least four doses tested.
# The rats were sacrificed four hours after treatment, and brain tissue from the PC/RS region was histopathologically evaluated by previously described methods using double-blinded techniques (Olney et al 1991). The number of vacuolated PC and RS neurons were counted on each side of the brain at a rostrocaudal level immediately posterior to where the corpus callosum ceases decussating across the midline (approximately 5.6 mm caudal to Bregma; Paxinos & Watson, The Rat Brain in Stereotaxic Coordinates, 2d Ed., 1986).
# α2 receptors = conditions: in words; cited from earlier work
# sigma receptors = conditions: sigma and dopamine receptors; cited from earlier work
# [3] = cited from earlier work
# cerebral cortex = conditions: cited from earlier work
# [4] = tested on: neurotoxic side effects caused by NMDA antagonists such as PCP or MK-801; conditions: Olney et al 1991, U.S. Pat. No. 5,034,400; cited from earlier work
# [5] = compared to clonidine, cited from earlier work
# [6] = tested on: alpha-2 adrenergic receptor; conditions: for shift of clonidine blocking curve: preliminary, combined with clonidine (n=4), yohimbine 1 mg/kg ip or rauwolscine 5 mg/kg ip
# Procedure: The brains were processed and the severity of damage assessed as described in Example 1. Results were analyzed by analysis of variance (ANOVA) where the dose of xylazine was the covariate and the presence of yohimbine served as the classification (treatment) variable. The homogeneity of slopes assumption was tested by determining whether there was a significant interaction between the covariate and the treatment variable.
smiles,measurement,setting,value
Clc1ccc2c(c1)C(N1CCNCC1)=Nc1ccccc1O2 [Amoxapine],ED50,PC/RS cortical neurons,75 mg/kg
Clc1cccc(Cl)c1N=C1NCCN1 [Clonidine],"cytopathology in retina incubated in NMDA plus MK-801, without or with α2 agonist",chick embryo retina,no cytopathology
same,reduction of withdrawal symptoms,[1],help reduce withdrawal symptoms in some recovering addicts
same,ED50,[2]; 4 h,0.044 mg/kg
same,relative potency in preventing the neurotoxic reaction,[2],the most potent
same,affinity/selectivity for α2 over α1 receptors,α2 receptors,activate α2 receptors with higher affinity than they have for α1 receptors
CN1CCN(C2=Nc3cc(Cl)ccc3Nc3ccccc32)CC1 [Clozapine],ED50,"PC/RS cortical neurons; protection against MK-801-induced vacuoles, confidence limits 25th & 75th percentiles in separate column, read-out: ED50",3.2 mg/kg
"Cc1ccccc1NC(=N)Nc1ccccc1C [Di(2-tolyl)guanidine, di(2-tolyl)guanidine]",ED50,PC/RS cortical neurons,22.2 mg/kg
CN1CCN(C2=Nc3cc(F)ccc3Cc3ccccc32)CC1 [Fluperlapine],ED50,PC/RS cortical neurons,2.3 mg/kg
N=C(N)N/N=C/c1c(Cl)cccc1Cl [Guanabenz],ED50,[2]; 4 h,0.21 mg/kg
same,relative potency in preventing the neurotoxic reaction,[2],intermediate
same,affinity/selectivity for α2 over α1 receptors,α2 receptors,activate α2 receptors with higher affinity than they have for α1 receptors
O=C(CCCN1CCC(O)(c2ccc(Cl)cc2)CC1)c1ccc(F)cc1 [Haloperidol],receptor selectivity,sigma receptors,interact with both dopamine receptors and sigma receptors
same,ED50,PC/RS cortical neurons,5.1 mg/kg
CNC1(c2ccccc2Cl)CCCCC1=O (stereo not shown) [Ketamine],duration of action,"[3]; ketamine, human anesthesia",about 15 minutes
same,pathomorphological changes in brain,"cerebral cortex; rat, in vivo",cause pathomorphological changes in the cerebral cortex of adult rats
CN1CCN(C2=Nc3ccccc3Oc3ccc(Cl)cc32)CC1 [Loxapine],receptor selectivity,sigma receptors,interact with both dopamine receptors and sigma receptors
same,ED50,PC/RS cortical neurons,23.6 mg/kg
"C[C@]12N[C@H](Cc3ccccc31)c1ccccc12 [MK-801, (+)-5-methyl-10,11-dihydro-5H-di[a,d]-cyclohepten-5,10-imine]",protection against excitotoxic damage,chick embryo retina; regardless of α2 agonist,completely protected against excitotoxic damage
same,"cytopathology in retina incubated in NMDA plus MK-801, without or with α2 agonist",chick embryo retina,no cytopathology
same,duration of action,[3]; in words,measured in days
same,mean number of vacuolated neurons per section,"[2]; MK-801 0.5 mg/kg sc plus vehicle, 4 h, SEM, n=26",223±10.5 vacuolated neurons per section
same,neurotoxic reaction to MK-801,"[2]; all control animals, MK-801 0.5 mg/kg sc",All control animals developed a neurotoxic reaction
Cc1cc2c(s1)Nc1ccccc1N=C2N1CCN(C)CC1 [Olanzapine],ED50,PC/RS cortical neurons,1.4 mg/kg
C[C@@H]1CN(CCCn2c3ccccc3c3ccccc32)C[C@H](C)N1 [Rimcazole],receptor selectivity,sigma receptors,substantial affinity only for sigma receptors
same,ED50,PC/RS cortical neurons,17.8 mg/kg
CSc1ccc2c(c1)N(CCC1CCCCN1C)c1ccccc1S2 (stereo not shown) [Thioridazine],receptor selectivity,sigma receptors,interact with both dopamine receptors and sigma receptors
same,ED50,PC/RS cortical neurons,55.3 mg/kg
CCNC1(c2cccs2)CCCCC1=O (stereo not shown) [Tiletamine],pathomorphological changes in brain,"cerebral cortex; adult rat, literature",cause pathomorphological changes in the cerebral cortex of adult rats
Cc1cccc(C)c1N=C1NCCCS1 [Xylazine],"cytopathology in retina incubated in NMDA plus MK-801, without or with α2 agonist",chick embryo retina,no cytopathology
same,ED50,[2]; 4 h,2.4 mg/kg
same,relative potency in preventing the neurotoxic reaction,[2],the least potent
same,affinity/selectivity for α2 over α1 receptors,α2 receptors,activate α2 receptors with higher affinity than they have for α1 receptors
C[C@](N)(Cc1ccc(O)c(O)c1)C(=O)O [alpha-methyldopa],affinity/selectivity for α2 over α1 receptors,α2 receptors,activate α2 receptors with higher affinity than they have for α1 receptors
CC(N)C(O)c1ccc(O)c(O)c1 (stereo not drawn) [alpha-methylnoradrenaline],affinity/selectivity for α2 over α1 receptors,α2 receptors,activate α2 receptors with higher affinity than they have for α1 receptors
CCN1CCc2nc(N)oc2CC1 [azepexole],affinity/selectivity for α2 over α1 receptors,α2 receptors,"activate α2 receptors with higher affinity than they have for α1 receptors; also recorded: substantially more selectivity for α2 receptors than for α1 receptors, when compared to clonidine; also recorded: substantially higher selectivity for α2 receptors (and substantially lower affinity for α1 receptors) than clonidine"
CN1[C@@H]2CC[C@H]1C[C@@H](OC(c1ccccc1)c1ccccc1)C2 [benztropine],block of neurotoxic side effects caused by NMDA antagonists,[4],can block the neurotoxic side effects caused by NMDA antagonists
OC(CCN1CCCCC1)(c1ccccc1)C1CC2C=CC1C2 (stereo not shown) [biperiden],block of neurotoxic side effects caused by NMDA antagonists,[4],can block the neurotoxic side effects caused by NMDA antagonists
Cc1cccc([C@H](C)c2cnc[nH]2)c1C [dexmedetomidine],affinity/selectivity for α2 over α1 receptors,α2 receptors,"activate α2 receptors with higher affinity than they have for α1 receptors; also recorded: substantially more selectivity for α2 receptors than for α1 receptors, when compared to clonidine; also recorded: substantially higher selectivity for α2 receptors (and substantially lower affinity for α1 receptors) than clonidine"
N=C(N)NC(=O)Cc1c(Cl)cccc1Cl [guanfacine],hypotensive side effects,[5],substantially lower activity in reducing blood pressure than clonidine
same,affinity/selectivity for α2 over α1 receptors,α2 receptors,activate α2 receptors with higher affinity than they have for α1 receptors; also recorded: substantially higher selectivity for α2 receptors (and substantially lower affinity for α1 receptors) than clonidine
CC(Oc1c(Cl)cccc1Cl)C1=NCCN1 (stereo not shown) [lofexidine],reduction of withdrawal symptoms,[1],help reduce withdrawal symptoms in some recovering addicts
same,hypotensive side effects,[5],substantially lower hypotensive side effects than clonidine; also recorded: substantially lower activity in reducing blood pressure than clonidine
same,hypotensive side effects,[5]; listed as Lofexidine,reduced hypotensive side effects compared to clonidine
same,affinity/selectivity for α2 over α1 receptors,α2 receptors,activate α2 receptors with higher affinity than they have for α1 receptors
Cc1cccc(C(C)c2cnc[nH]2)c1C (stereo not shown) [medetomidine],affinity/selectivity for α2 over α1 receptors,α2 receptors,activate α2 receptors with higher affinity than they have for α1 receptors
Clc1cc(I)cc(Cl)c1NC1=NCCN1 [p-Iodoclonidine],ED50,[2]; 4 h,1.3 mg/kg
same,relative potency in preventing the neurotoxic reaction,[2],intermediate
same,affinity/selectivity for α2 over α1 receptors,α2 receptors,activate α2 receptors with higher affinity than they have for α1 receptors
OC(CCN1CCCC1)(c1ccccc1)C1CCCCC1 (stereo not shown) [procyclidine],block of neurotoxic side effects caused by NMDA antagonists,[4],can block the neurotoxic side effects caused by NMDA antagonists
COC(=O)[C@H]1[C@H]2C[C@H]3c4[nH]c5ccccc5c4CCN3C[C@H]2CC[C@@H]1O [rauwolscine],shift of clonidine blocking curve,[6],A similar shifting of the curve to the right
C1COC(NC(C2CC2)C2CC2)=N1 [rilmenidine],affinity/selectivity for α2 over α1 receptors,α2 receptors,activate α2 receptors with higher affinity than they have for α1 receptors
C=CCC1(C(C)CCC)C(=O)NC(=O)NC1=O (stereo not shown) [secobarbitol],block of neurotoxic side effects caused by NMDA antagonists,[4],can block the neurotoxic side effects caused by NMDA antagonists
Clc1ccc2nsnc2c1NC1=NCCN1 [tizanidine],affinity/selectivity for α2 over α1 receptors,α2 receptors,activate α2 receptors with higher affinity than they have for α1 receptors
OC(CCN1CCCCC1)(c1ccccc1)C1CCCCC1 (stereo not shown) [trihexyphenidyl],block of neurotoxic side effects caused by NMDA antagonists,[4],can block the neurotoxic side effects caused by NMDA antagonists
COC(=O)[C@@H]1[C@H]2C[C@H]3c4[nH]c5ccccc5c4CCN3C[C@@H]2CC[C@@H]1O [yohimbine],shift of clonidine blocking curve,[6],A similar shifting of the curve to the right
same,effect on xylazine's protection,"[6]; yohimbine 1 mg/kg ip with various doses of xylazine, MK-801-treated rats, F(1,42)=9.40, p=0.004",significantly interfered with xylazine's protection
same,shift of xylazine blocking curve,"[6]; yohimbine 1 mg/kg ip, MK-801-treated rats, FIG. 2",shifted the blocking curve to the right
